This note sets out measurements from ChEMBL document CHEMBL3217515, “Synthesis and biological evaluation of 2,3-bis(het)aryl-4-azaindole derivatives as protein kinase inhibitors” (Medchemcomm, 2011).

In assay [1] the target is Dual specificity tyrosine-phosphorylation-regulated kinase 1A (Homo sapiens, UniProt Q13627). Description: Inhibition of DYRK1A (unknown origin).
In assay [2] the target is Glycogen synthase kinase-3 beta (Homo sapiens, UniProt P49841). Description: Inhibition of GSK3beta (unknown origin).
Sequence of Glycogen synthase kinase-3 beta (P49841 whole entry): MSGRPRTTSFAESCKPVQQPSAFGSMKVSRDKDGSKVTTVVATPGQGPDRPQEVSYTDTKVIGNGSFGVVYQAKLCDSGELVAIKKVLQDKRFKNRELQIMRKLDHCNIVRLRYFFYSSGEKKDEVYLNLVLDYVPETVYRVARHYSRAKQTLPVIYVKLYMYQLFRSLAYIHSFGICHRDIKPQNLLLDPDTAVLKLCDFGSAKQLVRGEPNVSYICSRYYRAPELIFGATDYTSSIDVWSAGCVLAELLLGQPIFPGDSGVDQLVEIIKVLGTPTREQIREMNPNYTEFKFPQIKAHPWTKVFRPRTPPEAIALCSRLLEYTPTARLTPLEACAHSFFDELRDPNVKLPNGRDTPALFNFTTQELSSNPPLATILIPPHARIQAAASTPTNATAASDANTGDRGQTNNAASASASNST
The target of assay [3] is RAF proto-oncogene serine/threonine-protein kinase (Homo sapiens, UniProt P04049). Description: Inhibition of RAF1 (unknown origin).
Sequence of RAF proto-oncogene serine/threonine-protein kinase (P04049 whole entry): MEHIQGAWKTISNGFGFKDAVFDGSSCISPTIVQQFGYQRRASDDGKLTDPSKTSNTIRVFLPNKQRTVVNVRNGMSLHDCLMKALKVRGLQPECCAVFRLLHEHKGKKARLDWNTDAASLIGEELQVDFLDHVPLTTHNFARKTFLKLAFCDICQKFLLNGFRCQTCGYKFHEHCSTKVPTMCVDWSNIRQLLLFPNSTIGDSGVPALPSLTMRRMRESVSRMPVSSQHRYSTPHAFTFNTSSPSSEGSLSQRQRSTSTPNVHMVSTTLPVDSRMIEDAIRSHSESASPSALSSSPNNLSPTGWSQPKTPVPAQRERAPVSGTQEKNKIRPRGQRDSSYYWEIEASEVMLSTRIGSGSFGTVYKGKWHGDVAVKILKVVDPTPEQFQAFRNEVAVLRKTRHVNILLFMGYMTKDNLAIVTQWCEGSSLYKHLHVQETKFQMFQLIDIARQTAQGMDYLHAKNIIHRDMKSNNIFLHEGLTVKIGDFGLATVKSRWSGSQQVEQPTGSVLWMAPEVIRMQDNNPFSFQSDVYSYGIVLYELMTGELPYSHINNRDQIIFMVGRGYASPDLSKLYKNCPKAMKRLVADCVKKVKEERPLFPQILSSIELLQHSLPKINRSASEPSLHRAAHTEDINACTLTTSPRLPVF
Assay [4] has as its target Cyclin-dependent kinase 5 (Homo sapiens, UniProt Q00535). Description: Inhibition of CDK5 (unknown origin).

Sequence of Cyclin-dependent kinase 5 (Q00535 whole entry): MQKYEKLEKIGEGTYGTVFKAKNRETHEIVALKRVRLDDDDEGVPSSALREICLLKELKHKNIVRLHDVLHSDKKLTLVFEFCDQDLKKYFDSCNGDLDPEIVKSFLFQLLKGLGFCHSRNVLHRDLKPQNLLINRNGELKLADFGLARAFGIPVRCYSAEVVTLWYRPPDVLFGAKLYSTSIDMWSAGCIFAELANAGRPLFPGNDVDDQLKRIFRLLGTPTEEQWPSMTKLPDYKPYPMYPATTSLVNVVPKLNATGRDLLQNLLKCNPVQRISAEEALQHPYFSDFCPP

The IC50 is the concentration that gives 50% inhibition. High values mean weaker potency in that assay, low ones greater potency in that assay. For `COc1ccc2[nH]c(-c3ccc(O)cc3)c(-c3ccncc3)c2n1`, the IC50 is 0.47 µM in assay [1], over 10 µM in assay [2], 1.3 µM in assay [3] and over 10 µM in assay [4].
On to `COc1ccc2[nH]c(-c3ccccc3)c(-c3ccncc3)c2n1`, for which the IC50 in assay [1] was 1.3 µM; in assay [2], over 10 µM; in assay [3] it was 3.2 µM; in assay [4] it was over 10 µM.
For the molecule `COc1ccc2[nH]c(-c3cccc(O)c3)c(-c3ccncc3)c2n1`, the half-inhibitory concentration (IC50) was 0.7 µM in assay [1], over 10 µM in assay [2], 0.286 µM in assay [3] and over 10 µM in assay [4].
For the molecule `COc1ccc2[nH]c(-c3cccc(O)c3)c(-c3ccccn3)c2n1`, the 50% inhibitory concentration (IC50) was over 10 µM in assay [1], over 10 µM in assay [2], 9.2 µM in assay [3] and over 10 µM in assay [4].
Regarding `COc1ccc2[nH]c(-c3ccccc3O)c(-c3ccncc3)c2n1`, the IC50 was 0.23 µM in assay [1], over 10 µM in assay [2] and over 10 µM in assay [4].
Take `COc1ccc2[nH]c(-c3cccc(O)c3)c(-c3cccnc3)c2n1`: the IC50 is over 10 µM in assay [1], over 10 µM in assay [2], 16.5 µM in assay [3] and over 10 µM in assay [4].
Regarding `COc1ccc2[nH]c(-c3cccc(F)c3)c(-c3ccncc3)c2n1`, the IC50 is 1.8 µM in assay [1], over 10 µM in assay [2], 4.3 µM in assay [3] and over 10 µM in assay [4].
On to `COc1ccc2[nH]c(-c3ccc4cc(O)ccc4c3)c(-c3ccncc3)c2n1`, for which the 50% inhibitory concentration (IC50) is 0.84 µM in assay [1], over 10 µM in assay [2], over 50 µM in assay [3] and over 10 µM in assay [4].
For the molecule `COc1ccc2[nH]c(-c3cc(O)cc(O)c3)c(-c3ccncc3)c2n1`, the IC50 is over 10 µM in assay [1], over 10 µM in assay [2], over 50 µM in assay [3] and over 10 µM in assay [4].
